The record followed here is ChEMBL document CHEMBL1909046, “DrugMatrix in vitro pharmacology data”.

As usually defined, the IC50 is the midpoint of a concentration-inhibition curve. By Ki is commonly meant the equilibrium dissociation constant of an inhibitor or competing ligand from its target.

Chain of Tyrosine-protein kinase Lck (P06239 whole entry): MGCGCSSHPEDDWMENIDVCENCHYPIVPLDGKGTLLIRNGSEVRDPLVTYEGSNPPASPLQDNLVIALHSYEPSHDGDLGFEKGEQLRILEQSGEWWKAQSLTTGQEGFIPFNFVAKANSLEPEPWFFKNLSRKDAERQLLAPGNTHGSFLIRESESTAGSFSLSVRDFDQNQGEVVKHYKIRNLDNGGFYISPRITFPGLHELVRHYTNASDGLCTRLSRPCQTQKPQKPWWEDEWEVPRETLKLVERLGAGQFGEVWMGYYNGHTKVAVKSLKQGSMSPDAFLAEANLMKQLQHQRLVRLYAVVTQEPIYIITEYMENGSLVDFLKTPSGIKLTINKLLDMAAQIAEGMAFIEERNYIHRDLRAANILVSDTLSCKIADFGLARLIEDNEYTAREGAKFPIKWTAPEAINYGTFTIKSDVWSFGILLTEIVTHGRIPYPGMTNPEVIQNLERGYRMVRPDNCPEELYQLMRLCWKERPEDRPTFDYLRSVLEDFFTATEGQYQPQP

The first test has as its target Tyrosine-protein kinase Lck (Homo sapiens, UniProt P06239). As to the kind of experiment: DRUGMATRIX: Protein Tyrosine Kinase, LCK enzyme inhibition (substrate: Poly(Glu:Tyr)). The class given is cell-based, Insect cells. Particulars: insect cells; Not Active = under 50% inhibition at 10 µM.
In the case of `NC(=O)c1ccccc1O` [SALICYLAMIDE], the half-inhibitory concentration (IC50) entry was “Not Active”.
Take `CC1CN(c2cc3c(cc2F)c(=O)c(C(=O)O)cn3-c2ccc(F)cc2F)CCN1` (centres undefined) [TEMAFLOXACIN]: the IC50 result is recorded as “Not Active”.
On the same count and under the same terms, next, `COS(C)(=O)=O` [METHANESULFONIC ACID METHYL ESTER]: “Not Active”; `CN1[C@@H]2CC[C@H]1C[C@@H](OC(=O)c1c[nH]c3ccccc13)C2` [TROPISETRON]: “Not Active”.

For a further test, the target named is C-C chemokine receptor type 2 (Homo sapiens, UniProt P41597). Note: in other assays of this panel Not Active means under 50% inhibition at 10 µM.
Chain of C-C chemokine receptor type 2 (P41597 whole entry): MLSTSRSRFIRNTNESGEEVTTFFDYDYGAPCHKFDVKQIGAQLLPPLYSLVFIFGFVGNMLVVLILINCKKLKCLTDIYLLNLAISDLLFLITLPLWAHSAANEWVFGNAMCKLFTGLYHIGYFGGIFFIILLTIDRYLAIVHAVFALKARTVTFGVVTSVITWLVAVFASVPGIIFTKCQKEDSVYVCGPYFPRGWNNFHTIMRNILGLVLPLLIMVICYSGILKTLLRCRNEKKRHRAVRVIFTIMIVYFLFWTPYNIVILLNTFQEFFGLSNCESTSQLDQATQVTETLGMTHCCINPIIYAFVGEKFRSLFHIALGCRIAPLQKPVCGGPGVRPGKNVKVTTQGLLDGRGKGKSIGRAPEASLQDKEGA
Assay: not given
The test is classed as cell membranes, CHO-K1, Membrane. Particulars: cho-k1.
As to `NC(=O)c1ccccc1O` [SALICYLAMIDE], the half-maximal inhibitory concentration (IC50) result is “Not Active”.
On the same count and under the same terms, then `CC1CN(c2cc3c(cc2F)c(=O)c(C(=O)O)cn3-c2ccc(F)cc2F)CCN1` (centres undefined) [TEMAFLOXACIN], with “Not Active”; and `COS(C)(=O)=O` [METHANESULFONIC ACID METHYL ESTER], with “Not Active”.
`CN1[C@@H]2CC[C@H]1C[C@@H](OC(=O)c1c[nH]c3ccccc13)C2` [TROPISETRON]: the IC50 result is on record as “Not Active”.

Test system in a further test: not listed separately
As to the kind of experiment: DRUGMATRIX: Interleukin IL-1 radioligand binding (ligand: [125I] interleukin 1beta). The test is classed as cell membranes, Membrane. To be noted: nih3t3; Not Active = under 50% inhibition at 10 µM.
Take `NC(=O)c1ccccc1O` [SALICYLAMIDE]: the IC50 entry is “Not Active” and the inhibitory constant (Ki) result is “Not Active”.
With `CC1CN(c2cc3c(cc2F)c(=O)c(C(=O)O)cn3-c2ccc(F)cc2F)CCN1` (centres undefined) [TEMAFLOXACIN], the half-inhibitory concentration (IC50) entry is “Not Active” and the Ki result is reported as “Not Active”.
With `COS(C)(=O)=O` [METHANESULFONIC ACID METHYL ESTER], the IC50 entry was “Not Active” and the inhibition constant Ki entry is “Not Active”.
`CN1[C@@H]2CC[C@H]1C[C@@H](OC(=O)c1c[nH]c3ccccc13)C2` [TROPISETRON]: the IC50 result is listed as “Not Active” and the Ki result was “Not Active”.

The target of another test is Matrix metalloproteinase-9 (Homo sapiens, UniProt P14780).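 Note: inhibition of isolated MMP-9 enzyme activity toward a synthetic peptide substrate, from the DrugMatrix protease screening panel; in other assays of this panel Not Active means under 50% inhibition at 10 µM.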
Chain of Matrix metalloproteinase-9 (P14780 whole entry): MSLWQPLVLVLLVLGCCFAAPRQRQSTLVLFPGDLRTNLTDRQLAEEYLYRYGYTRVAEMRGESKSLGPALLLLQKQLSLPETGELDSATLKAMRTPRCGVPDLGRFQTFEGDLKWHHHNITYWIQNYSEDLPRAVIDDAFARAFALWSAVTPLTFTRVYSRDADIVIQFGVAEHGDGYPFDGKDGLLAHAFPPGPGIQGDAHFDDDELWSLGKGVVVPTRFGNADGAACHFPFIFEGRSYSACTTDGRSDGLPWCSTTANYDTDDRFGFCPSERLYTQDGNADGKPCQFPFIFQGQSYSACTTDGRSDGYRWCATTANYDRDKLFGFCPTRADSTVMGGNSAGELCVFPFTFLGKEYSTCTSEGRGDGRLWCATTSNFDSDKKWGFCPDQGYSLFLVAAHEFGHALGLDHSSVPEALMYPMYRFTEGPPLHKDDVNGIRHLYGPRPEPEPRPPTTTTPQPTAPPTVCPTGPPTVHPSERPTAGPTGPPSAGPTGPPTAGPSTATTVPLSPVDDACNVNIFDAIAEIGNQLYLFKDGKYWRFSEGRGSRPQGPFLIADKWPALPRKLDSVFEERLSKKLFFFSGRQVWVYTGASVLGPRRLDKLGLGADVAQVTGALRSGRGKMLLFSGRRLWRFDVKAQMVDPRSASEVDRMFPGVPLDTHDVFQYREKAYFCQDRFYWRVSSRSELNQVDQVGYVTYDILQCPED
Assay: not given
Settings: not given
The class given is cell-based.
With `NC(=O)c1ccccc1O` [SALICYLAMIDE], the 50% inhibitory concentration (IC50) result was “Not Active”.
On the same count and under the same terms, next, `CC1CN(c2cc3c(cc2F)c(=O)c(C(=O)O)cn3-c2ccc(F)cc2F)CCN1` (centres undefined) [TEMAFLOXACIN]: “Not Active”; `COS(C)(=O)=O` [METHANESULFONIC ACID METHYL ESTER]: “Not Active”; `CN1[C@@H]2CC[C@H]1C[C@@H](OC(=O)c1c[nH]c3ccccc13)C2` [TROPISETRON]: “Not Active”.

In the next test the target is T1, Muscarinic acetylcholine receptor M2 (Homo sapiens, UniProt P08172). Note: in other assays of this panel Not Active means under 50% inhibition at 10 µM.
T1 sequence (P08172 whole entry): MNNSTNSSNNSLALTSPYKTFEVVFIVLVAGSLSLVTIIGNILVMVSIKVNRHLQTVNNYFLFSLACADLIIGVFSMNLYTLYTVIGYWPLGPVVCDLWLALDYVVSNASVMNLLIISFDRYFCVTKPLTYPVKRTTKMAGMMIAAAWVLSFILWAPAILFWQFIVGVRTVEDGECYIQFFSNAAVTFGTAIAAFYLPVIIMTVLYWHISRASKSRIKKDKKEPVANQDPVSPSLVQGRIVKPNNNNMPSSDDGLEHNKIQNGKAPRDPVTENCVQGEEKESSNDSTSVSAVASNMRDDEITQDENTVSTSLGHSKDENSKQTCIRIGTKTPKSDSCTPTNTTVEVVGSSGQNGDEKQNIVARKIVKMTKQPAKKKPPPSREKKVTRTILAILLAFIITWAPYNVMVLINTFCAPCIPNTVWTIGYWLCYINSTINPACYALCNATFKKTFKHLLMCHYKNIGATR
Assay: not given
The test is classed as cell membranes, CHO-K1, Membrane. To be noted: cho-k1.
With `NC(=O)c1ccccc1O` [SALICYLAMIDE], the IC50 entry is “Not Active”.
On the same count and under the same terms, next, `CC1CN(c2cc3c(cc2F)c(=O)c(C(=O)O)cn3-c2ccc(F)cc2F)CCN1` (centres undefined) [TEMAFLOXACIN]: “Not Active”; `COS(C)(=O)=O` [METHANESULFONIC ACID METHYL ESTER]: “Not Active”.
Same read-out and setting: then `CN1[C@@H]2CC[C@H]1C[C@@H](OC(=O)c1c[nH]c3ccccc13)C2` [TROPISETRON], with “Not Active”.

The target of the next test is Carbonic anhydrase 2 (Homo sapiens, UniProt P00918). The experiment in a line: DRUGMATRIX: Carbonic Anhydrase II enzyme inhibition (substrate: 4-Nitrophenyl acetate (4-NPA)). The test is classed as tissue-based, Erythrocyte. Particulars: erythrocyte; Not Active = under 50% inhibition at 10 µM.
Turning to `NC(=O)c1ccccc1O` [SALICYLAMIDE], the IC50 entry is reported as “Not Active”.
`CC1CN(c2cc3c(cc2F)c(=O)c(C(=O)O)cn3-c2ccc(F)cc2F)CCN1` (centres undefined) [TEMAFLOXACIN]: the 50% inhibitory concentration (IC50) entry is on record as “Not Active”.
In the case of `COS(C)(=O)=O` [METHANESULFONIC ACID METHYL ESTER], the half-inhibitory concentration (IC50) result is reported as “Not Active”.
For the molecule `CN1[C@@H]2CC[C@H]1C[C@@H](OC(=O)c1c[nH]c3ccccc13)C2` [TROPISETRON], the 50% inhibitory concentration (IC50) result is “Not Active”.

A further test concerns the target T2, Amine oxidase [flavin-containing] A (Homo sapiens, UniProt P21397).
T2 sequence (P21397 whole entry): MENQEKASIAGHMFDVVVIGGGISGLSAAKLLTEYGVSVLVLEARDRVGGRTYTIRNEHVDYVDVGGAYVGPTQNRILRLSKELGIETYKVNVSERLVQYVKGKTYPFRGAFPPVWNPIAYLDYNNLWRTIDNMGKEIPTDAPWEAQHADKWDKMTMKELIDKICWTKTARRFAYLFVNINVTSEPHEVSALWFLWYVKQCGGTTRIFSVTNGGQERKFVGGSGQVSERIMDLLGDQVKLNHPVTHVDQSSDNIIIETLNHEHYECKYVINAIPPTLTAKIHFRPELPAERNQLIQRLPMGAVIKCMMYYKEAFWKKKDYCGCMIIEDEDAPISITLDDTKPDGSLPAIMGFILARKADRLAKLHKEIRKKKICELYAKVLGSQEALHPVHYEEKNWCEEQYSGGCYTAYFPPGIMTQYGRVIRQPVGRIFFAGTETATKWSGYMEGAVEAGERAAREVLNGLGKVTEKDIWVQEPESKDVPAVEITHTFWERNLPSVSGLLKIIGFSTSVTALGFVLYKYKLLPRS
The experiment in a line: DRUGMATRIX: Monoamine Oxidase MAO-A enzyme inhibition (substrate: Kynuramine). Particulars: bti-tn-5b1-4; Not Active = under 50% inhibition at 10 µM. Set-up: species or system BTI-TN-5B1-4.
`NC(=O)c1ccccc1O` [SALICYLAMIDE]: the IC50 entry is recorded as “Not Active”.
Same read-out and setting: then `CC1CN(c2cc3c(cc2F)c(=O)c(C(=O)O)cn3-c2ccc(F)cc2F)CCN1` (centres undefined) [TEMAFLOXACIN], with “Not Active”.
`COS(C)(=O)=O` [METHANESULFONIC ACID METHYL ESTER]: the IC50 result is given as “Not Active”.
With `CN1[C@@H]2CC[C@H]1C[C@@H](OC(=O)c1c[nH]c3ccccc13)C2` [TROPISETRON], the IC50 entry is given as “Not Active”.

The target of a further test is 5-hydroxytryptamine receptor 4 (Cavia porcellus, UniProt O70528). Note: in other assays of this panel Not Active means under 50% inhibition at 10 µM.
Chain of 5-hydroxytryptamine receptor 4 (O70528 whole entry): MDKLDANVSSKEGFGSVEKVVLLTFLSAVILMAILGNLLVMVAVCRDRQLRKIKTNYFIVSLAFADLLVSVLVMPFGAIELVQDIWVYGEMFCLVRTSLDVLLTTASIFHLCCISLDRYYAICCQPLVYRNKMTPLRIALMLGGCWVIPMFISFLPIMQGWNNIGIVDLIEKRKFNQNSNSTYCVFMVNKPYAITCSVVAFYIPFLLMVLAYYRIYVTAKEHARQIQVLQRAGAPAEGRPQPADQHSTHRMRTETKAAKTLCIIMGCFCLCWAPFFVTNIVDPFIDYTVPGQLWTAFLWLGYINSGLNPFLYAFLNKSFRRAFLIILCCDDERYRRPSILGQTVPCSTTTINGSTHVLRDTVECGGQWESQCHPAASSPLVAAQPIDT
Assay: not given
Settings: not given
The class given is cell membranes, Dunkin-Hartley, Striatum, Membrane.
On to `NC(=O)c1ccccc1O` [SALICYLAMIDE], for which the IC50 entry was “Not Active”.
On the same count and under the same terms, then `CC1CN(c2cc3c(cc2F)c(=O)c(C(=O)O)cn3-c2ccc(F)cc2F)CCN1` (centres undefined) [TEMAFLOXACIN], with “Not Active”; and `COS(C)(=O)=O` [METHANESULFONIC ACID METHYL ESTER], with “Not Active”.

The same test, now with this note: read-out: IC50.
As to `CN1[C@@H]2CC[C@H]1C[C@@H](OC(=O)c1c[nH]c3ccccc13)C2` [TROPISETRON], the 50% inhibitory concentration (IC50) was determined as 324 nM.

The same test, now with this note: read-out: Ki.
For `CN1[C@@H]2CC[C@H]1C[C@@H](OC(=O)c1c[nH]c3ccccc13)C2` [TROPISETRON], the inhibition constant (Ki) is 54 nM.

Test system in another test: not listed separately
As to the kind of experiment: DRUGMATRIX: Phosphodiesterase PDE3 enzyme inhibition (substrate: [3H]cAMP + cAMP). The class given is tissue-based, Homo sapiens. Particulars: platelet; Not Active = under 50% inhibition at 10 µM.
As to `NC(=O)c1ccccc1O` [SALICYLAMIDE], the IC50 result was “Not Active” and the Ki entry is “Not Active”.
`CC1CN(c2cc3c(cc2F)c(=O)c(C(=O)O)cn3-c2ccc(F)cc2F)CCN1` (centres undefined) [TEMAFLOXACIN]: the 50% inhibitory concentration (IC50) entry was “Not Active” and the Ki entry is reported as “Not Active”.
In the case of `COS(C)(=O)=O` [METHANESULFONIC ACID METHYL ESTER], the IC50 entry is listed as “Not Active” and the Ki result is listed as “Not Active”.
In the case of `CN1[C@@H]2CC[C@H]1C[C@@H](OC(=O)c1c[nH]c3ccccc13)C2` [TROPISETRON], the half-maximal inhibitory concentration (IC50) entry is “Not Active” and the Ki entry is given as “Not Active”.

The target of another test is T3, Angiotensin-converting enzyme (Oryctolagus cuniculus, UniProt P12822).
T3 sequence (P12822 whole entry): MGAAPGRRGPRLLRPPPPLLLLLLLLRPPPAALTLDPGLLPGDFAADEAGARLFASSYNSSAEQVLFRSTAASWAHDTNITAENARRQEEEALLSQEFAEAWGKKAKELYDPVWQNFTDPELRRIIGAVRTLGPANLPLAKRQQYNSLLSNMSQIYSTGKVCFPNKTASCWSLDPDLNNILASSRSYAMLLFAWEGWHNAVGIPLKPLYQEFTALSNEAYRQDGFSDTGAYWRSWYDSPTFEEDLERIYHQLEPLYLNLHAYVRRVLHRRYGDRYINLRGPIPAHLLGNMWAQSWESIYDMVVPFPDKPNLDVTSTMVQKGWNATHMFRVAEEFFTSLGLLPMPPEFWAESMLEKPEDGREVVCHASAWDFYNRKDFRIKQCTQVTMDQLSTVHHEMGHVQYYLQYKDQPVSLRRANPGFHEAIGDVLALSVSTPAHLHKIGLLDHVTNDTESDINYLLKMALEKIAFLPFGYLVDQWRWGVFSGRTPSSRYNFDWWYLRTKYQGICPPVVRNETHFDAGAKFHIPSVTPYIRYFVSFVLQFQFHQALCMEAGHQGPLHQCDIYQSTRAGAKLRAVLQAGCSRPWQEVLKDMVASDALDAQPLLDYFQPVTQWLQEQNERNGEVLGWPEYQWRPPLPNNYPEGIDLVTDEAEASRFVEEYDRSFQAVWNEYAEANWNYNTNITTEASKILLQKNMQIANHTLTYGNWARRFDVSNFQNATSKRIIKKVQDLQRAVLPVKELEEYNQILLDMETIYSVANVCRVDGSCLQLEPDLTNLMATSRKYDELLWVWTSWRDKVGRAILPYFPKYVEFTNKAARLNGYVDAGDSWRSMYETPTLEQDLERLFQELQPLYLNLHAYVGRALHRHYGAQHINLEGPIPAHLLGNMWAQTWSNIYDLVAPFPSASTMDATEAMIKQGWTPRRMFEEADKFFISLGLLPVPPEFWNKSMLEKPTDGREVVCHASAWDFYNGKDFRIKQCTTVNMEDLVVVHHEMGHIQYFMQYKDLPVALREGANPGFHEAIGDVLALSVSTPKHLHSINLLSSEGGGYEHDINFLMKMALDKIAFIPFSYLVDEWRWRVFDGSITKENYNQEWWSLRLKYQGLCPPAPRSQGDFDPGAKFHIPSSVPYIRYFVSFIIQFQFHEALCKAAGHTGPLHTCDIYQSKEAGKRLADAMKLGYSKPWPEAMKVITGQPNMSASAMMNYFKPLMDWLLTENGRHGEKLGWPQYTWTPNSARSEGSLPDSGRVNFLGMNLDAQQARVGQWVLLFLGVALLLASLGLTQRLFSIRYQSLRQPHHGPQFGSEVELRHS
As to the kind of experiment: biochemical. The test is classed as tissue-based, Lung.
Settings: not given
In the case of `NC(=O)c1ccccc1O` [SALICYLAMIDE], the 50% inhibitory concentration (IC50) result is on record as “Not Active”.
The same measure, in the same setting: then `CC1CN(c2cc3c(cc2F)c(=O)c(C(=O)O)cn3-c2ccc(F)cc2F)CCN1` (centres undefined) [TEMAFLOXACIN], with “Not Active”; and `COS(C)(=O)=O` [METHANESULFONIC ACID METHYL ESTER], with “Not Active”.
Still for that read-out and setting: next, `CN1[C@@H]2CC[C@H]1C[C@@H](OC(=O)c1c[nH]c3ccccc13)C2` [TROPISETRON]: “Not Active”.
